Experimental data as given in patent US6261767A, “Method for the qualitative and quantitative detection of DNA damage” (Societe Francaise de Recherches et d'Investissements (SFRI), priority 1995, dated 2001).
Starred links: 1 amine or outer side, 2 acyl side, 3 side chain; linkers in the order of their positions; H or OH if unused. Positions of bridges follow the written chain, without caps; N, C: chain ends. Non-standard residues stand in square brackets, D forms with d. Residues, ends and D or L forms follow the SMILES beside them. Chains are numbered I, II in the order given. Actinocin(9to1) = Cc1c2oc3c(C)ccc(C(=O)[*:1])c3nc-2c(C(=O)[*:2])c(N)c1=O; NMeV = CN[C@H](C(=O)O)C(C)C; Sar = CNCC(=O)O

How the values were obtained:
[1] = tested on: DNA damage generated by methylene blue; assay: antioxidant relative activity (R.A.) against DNA damage by photo-activated methylene blue; assay type: biochemical; settings: summary of the R.A. table
Description: b/ Methylene blue is known to liberate by photo-activation, one atom of oxygen. For the tests to follow, methylene blue was subjected to radiation with visible light for 20 minutes with two bulb lamps of 100 W, a distance between the lamps and the support plates of 30 cm and a concentration of methylene blue of 50 ng/ml. The step of repair of the damage is carried out according to the information indicated above, with the use of the same reaction medium RM. In the same fashion, the plates, after the action of the reaction medium RM are washed three times with the washing solution indicated above, and incubated 15 minutes with a chemiluminescent substrate ("Lumi-Phos 530"). […] For the second test, with methylene blue, the relative activity RA has been calculated of an antioxidant which is equal to: [formula] in which formula: control RLU corresponds to the value of the signal of methylene blue alone subjected to radiation, test RLU corresponds to the value of the signal of methylene blue subjected to […] radiation plus an antioxidant molecule, and reference RLU corresponds to the value of the signal of the antioxidant molecule alone.

[2] = tested on: DNA damage generated by hydrogen peroxide; assay: inhibition of / antioxidant relative activity (R.A.) against DNA damage by hydrogen peroxide; assay type: biochemical; settings: 10 μm metallic chelating agent
[3] = tested on: repair activity of extracts from HeLa cells; assay: modulation (inhibition) of the repair activity of cellular extracts from HeLa cells on damaged DNA; assay type: biochemical; settings: FIG. 9
Excerpt: The invention also provides a process for measuring the effect of modulation and the inhibitive effect of the repair of at least one molecule, which comprises the following steps:
preparation of damaged DNA fixed on a sensitized support,
action of a composition comprising at least one cellular extract having a repair activity on this DNA, said extract containing markers, and conjointly the action of at least one molecule having the power of modulating the repair action,
direct or indirect revelation of the markers that may be incorporated in the DNA, in the case of repair, and
comparative reading relative to a control specimen.
d/ Repair in the presence of a cellular extract and of agents of known type, comprising for example for a volume of reaction medium (RM) of 50 μl:
In the course of the repair step, see FIG. 1D, the molecules for which it is sought to show a modulator effect of the repair can be added. These molecules are preferably diluted in water or in dimethylsulfoxide (DMSO).

For `COS(C)(=O)=O` [MMS, methylmethanesulfonate], the “effectiveness of damage as shown by the repair ratio (before vs after adsorption of DNA)” value (DNA (plasmid 2959 bp); MMS in contact with DNA before the adsorption step, FIG. 7) was “greater effectiveness of damage”.
Vitamin A was tested, and the “antioxidant activity (in words)” value [1] was “no antioxidizing effect”.
`CC(=O)N(O)CCCCCNC(=O)CCC(=O)N(O)CCCCCNC(=O)CCC(=O)N(O)CCCCCN` [mesylate deferroxamine] was tested, and the “inhibition of the effects of hydrogen peroxide (production of DNA damage)” value [2] was “inhibits totally”.
`Cc1c2oc3c(C)ccc(C(=O)N[C@@H]4C(=O)N[C@H](C(C)C)C(=O)N5CCC[C@H]5C(=O)N(C)CC(=O)N(C)[C@@H](C(C)C)C(=O)O[C@@H]4C)c3nc-2c(C(=O)N[C@@H]2C(=O)N[C@H](C(C)C)C(=O)N3CCC[C@H]3C(=O)N(C)CC(=O)N(C)[C@@H](C(C)C)C(=O)O[C@@H]2C)c(N)c1=O` [actinomycin D] (I: T[dV]P[Sar][NMeV] / II: T[dV]P[Sar][NMeV]; ester I:1-I:C, II:1-II:C; linker I:N-II:N via Actinocin(9to1)) was tested, and the “inhibitor effect on the repair activity” value [3] was “dose- dependent inhibitor effect”.
`CCn1cc(C(=O)O)c(=O)c2ccc(C)nc21` [nalidixic acid] was tested, and the “inhibitor effect on the repair activity” value [3] was “without effect”.
`COc1cccc2c1C(=O)c1c(O)c3c(c(O)c1C2=O)C[C@@](O)(C(=O)CO)C[C@@H]3O[C@H]1C[C@H](N)[C@H](O)[C@H](C)O1` [doxorubicine] was tested, and the “inhibitor effect on the repair activity” value [3] was “dose- dependent inhibitor effect”.
`OO` [hydrogen peroxide] was tested, and the “quantity for which the maximum ratio of repair is obtained” value (DNA (plasmid 2959 bp)) was 0.27 mM.
